This is an account of results in PubChem BioAssay (NCI).

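In this assay, cells in 96-well plates receive the compound at five concentrations for 48 hours. Endpoints are linearly interpolated between the surrounding concentrations. GI50 marks 50% less growth. TGI: concentration producing complete growth inhibition.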

Common to all, as to assay: NCI-60 cell line screen, 48 h
The test system of test [1] is UACC-62 melanoma.
In test [2] the test system is NCI-H226 lung.
The subject of test [3] is A498 renal.
Test [4] concerns UO-31 renal.
The subject of test [5] is UACC-257 melanoma.
Test [6] relates to HCT-116 colon.
In test [7] the test system is SNB-19 CNS.
Test [8] concerns SW-620 colon.
For test [9], the system named is RXF 393 renal.

Take `Cc1ccc2nc(-c3ccc(N(C)C)c(Br)c3)cn2c1`: the GI50 in test [1] was more than 100 µM; in test [2], more than 100 µM; in [3], more than 100 µM; in test [4] it was more than 100 µM; in test [5], more than 100 µM; in test [6] it was 7.13 µM. For the same molecule, the figures for the GI50 in test [7], in test [8] and in test [9] were 64.4 µM, 42.3 µM and more than 100 µM, respectively. For the same molecule, the TGI in [1], in test [2], in test [3], in test [4], in [5] and in test [6] was more than 100 µM throughout. Besides, the TGI in test [7], in test [8] and in [9] was more than 100 µM each time.

Take `COC(=O)C(=O)C(C(=O)C(=O)Nc1cccc(C(C)=O)c1)c1nc2ccccc2[nH]c1=O` (stereo unspecified): the TGI in test [1], in [2], in test [3], in test [4], in test [5] and in test [7] was more than 100 µM each time. Also, the TGI in test [8] and in test [9] was more than 100 µM each time.

Regarding `O=c1cccc(C2CC(CO)C3CCCCN3C2)[nH]1` (stereo unspecified), the TGI in test [1], in test [2], in [3], in test [4], in [5] and in [6] was more than 100 µM each time. Also, the TGI in [7] and in test [8] was more than 100 µM each time.

Regarding `Fc1cc2[nH]ncc2c2c3c(c(-c4cn[nH]c4C(F)(F)F)nc12)C1CCC3C1` (stereo unspecified), the GI50 in test [1] was 0.878 µM; in test [2], 0.926 µM; in [3] it was 0.591 µM; in test [4] it was 0.767 µM; in [5], 1.31 µM; in test [6], 0.642 µM. Moreover, the values for the GI50 in [7], in test [8] and in [9] were 1.59 µM, 0.982 µM and 0.345 µM, respectively. For the same molecule, the TGI in test [1] worked out at 3.39 µM; in test [2] it was 4.72 µM; in test [3], 1.25 µM; in test [4] it was 1.97 µM; in [5], 4.51 µM; in test [6], 5.55 µM. Moreover, the TGI in test [7] is 6.57 µM; in test [8] it was 5.13 µM; in [9] it was 1.12 µM.

For `Cc1ccc(-c2csc(NC(=O)CN3CCN(c4cc5c(cc4F)c(=O)c(C(=O)O)cn5C4CC4)CC3)n2)cc1`, the GI50 in test [1] is 1.26 µM; in [2], 2.51 µM; in test [3], 1.02 µM; in test [4] it was 1.04 µM; in [5], 1.91 µM; in test [6], 0.348 µM. The figures for the GI50 in [7], in [8] and in [9] were 0.87 µM, 0.95 µM and 0.633 µM, respectively. Further, the TGI was 13.1 µM in test [1]; 9.41 µM in test [2]; 10.3 µM in test [3]; 41.1 µM in test [4]; 6.18 µM in test [5]; 14.8 µM in [6]. The TGI in test [7] was 27 µM; in test [8] it was more than 100 µM; in [9] it was 17.8 µM.

As to `COc1ccc(/C=C\c2cc(OC)c(O[Si](C)(C)C(C)(C)C)c(OC)c2)cc1`, the TGI in test [1] is more than 100 µM; in [2], more than 100 µM; in test [3] it was 81.1 µM; in test [4] it was more than 100 µM; in [5], 62.4 µM; in [6], more than 100 µM. Moreover, the TGI in [7] and in [8] was more than 100 µM each time.

For the molecule `Cc1cc2c(cc1Cl)SC1=NN(C)C(N(C)C)N1S2(=O)=O` (stereo unspecified), the GI50 in test [1] was more than 100 µM; in test [2] it was more than 100 µM; in [3], 63.4 µM; in test [4], 98.1 µM; in test [5], more than 100 µM; in test [6], more than 100 µM. Moreover, the GI50 in test [7] and in test [8] was more than 100 µM throughout. Further, the TGI in test [1], in test [2], in [3], in test [4], in test [5] and in test [6] was more than 100 µM throughout. The TGI in test [7] and in [8] was more than 100 µM in each case.

`COC(=O)c1ccccc1NC(=O)C(=O)NNC(=O)c1ccncc1`: the TGI in test [1], in test [2], in test [4], in test [5], in test [6] and in test [7] was more than 100 µM throughout. The TGI in test [8] and in test [9] was more than 100 µM each time.

Regarding `CCOc1cc(/C=N\Nc2nnc(C)n2N)c(C)cc1N(CCCl)CCCl`, the GI50 in test [1] is 0.525 µM; in [2] it was 1.54 µM; in test [3], 0.212 µM; in [4], 1.3 µM; in [5], 0.396 µM; in test [6], 0.56 µM. Further, the GI50 in test [7] was 1.28 µM; in test [8] it was 0.663 µM; in [9], 1.2 µM. Besides, the TGI in [1] stood at 15.3 µM; in test [2], 14.7 µM; in test [3], 2.41 µM; in [4], 11.8 µM; in [5] it was 3.6 µM; in test [6], 13.2 µM. Further, the TGI is more than 45.7 µM in test [7], more than 57.3 µM in test [8] and 17.7 µM in test [9].

For `CC(=O)NC(CCCCNC(=O)NCCCl)C(=O)NCc1ccccc1` (stereo unspecified), the TGI in test [1], in [2], in [4], in test [5], in test [6] and in [7] was more than 100 µM each time. For the same molecule, the TGI in [8] and in test [9] was more than 100 µM throughout.

On to `Cc1sc2nc3c4ccccc4c(NCCCN(C)C)nn3c(=O)c2c1C`, for which the GI50 in [2] was 5.26 µM; in [3] it was 4.49 µM; in test [4], 3.13 µM; in test [5] it was 2.22 µM; in [6], 4.03 µM; in test [7] it was 15.9 µM. For the same molecule, the results for the GI50 in [8] and in [9] were 1.67 µM and 5.2 µM, respectively. Also, the TGI turned out to be 23.1 µM in test [2]; 20.2 µM in test [3]; 16.7 µM in test [4]; 4.79 µM in test [5]; 12.7 µM in test [6]; 29.5 µM in test [7]. In addition, the TGI came to 4.55 µM in test [8] and 19.8 µM in test [9].

Regarding `CC1C(=O)OCC2=CCN3CCC(OC(=O)C(C)C1(C)O)C23` (stereo unspecified), the TGI in [1], in test [2], in test [3], in test [4], in test [5] and in test [6] was more than 100 µM each time. The TGI in test [7] and in test [8] was more than 100 µM in each case.

For the molecule `O=C(O)C1CCCCC1C(=O)O.[NH-]C1CCC1.[NH2-].[Pt+2]` (stereo unspecified), the GI50 was 11.4 µM in [1]; 18.9 µM in test [2]; 19.4 µM in test [4]; 15 µM in [5]; 16.1 µM in [6]; more than 100 µM in test [7]. The GI50 was 14.4 µM in [8] and 52.8 µM in test [9]. Further, the TGI in test [1] is 23.6 µM; in [2] it was 42.8 µM; in test [4] it was 50.3 µM; in test [5] it was 36.6 µM; in [6] it was 36.2 µM; in test [7], more than 100 µM. Moreover, the TGI was 44.5 µM in test [8] and more than 100 µM in test [9].

`CCn1c2ccc(O)cc2c2c(C)c3c[n+](C)ccc3c(C)c21`: the GI50 in [1] is 2.05 µM; in test [2], 0.896 µM; in test [3], 3.71 µM; in test [4] it was 14.9 µM; in test [6], 4.55 µM; in [7], 0.272 µM. Moreover, the GI50 in test [8] is 3.85 µM; in test [9], 5.58 µM. Also, the TGI in test [1] was 22.8 µM; in test [2], 27.6 µM; in test [3], 59.4 µM; in [4], more than 100 µM; in test [6], more than 100 µM; in [7], 6.88 µM. Further, the TGI in test [8] and in test [9] was more than 100 µM each time.

Turning to `COc1ccc(-c2oc3c(OC)c(OC)c(OC)c(OC)c3c(=O)c2OC)cc1OC`, the TGI in test [1], in test [2], in test [3], in test [4], in test [5] and in [6] was more than 100 µM in each case. The TGI in test [7] and in test [8] was more than 100 µM throughout.

For `COc1ccc2c(c1)/C(=C\c1c(Cl)[nH]c3ccc(OC)cc13)C(=O)N2`, the GI50 is 35.2 µM in test [1]; 41.9 µM in [2]; 87.1 µM in [4]; 37.3 µM in test [5]; 16.3 µM in test [6]; 20.6 µM in test [7]. The GI50 in [8] is 20 µM; in test [9], more than 100 µM. The TGI in [1] is more than 100 µM; in test [2], more than 100 µM; in [4], more than 100 µM; in test [5] it was more than 100 µM; in test [6], 30.6 µM; in test [7], 64.1 µM. The TGI in test [8] is 48.9 µM; in test [9], more than 100 µM.

On to `CNCCn1c(=O)c2cc(OC)c(OC)cc2c2ccc3cc4c(cc3c21)OCO4`, for which the GI50 in [1] was 0.0465 µM; in [2], 0.192 µM; in test [3] it was 0.126 µM; in test [4] it was 0.123 µM; in [5] it was 0.16 µM; in [7] it was 0.116 µM. Also, the GI50 was 0.0572 µM in test [8] and 0.168 µM in test [9]. In addition, the TGI in test [1] was 0.145 µM; in [2], 1.03 µM; in test [3] it was 0.609 µM; in test [4], 0.543 µM; in test [5] it was 0.854 µM; in [7], 5.61 µM. Also, the TGI in test [8] came to 3.09 µM; in [9] it was 0.727 µM.

Turning to `CCCOc1ccc2nc(NC(=O)OC)[nH]c2c1`, the GI50 in test [1] is 0.215 µM; in test [2], 0.399 µM; in [3] it was 0.162 µM; in test [4] it was 0.501 µM; in test [5], more than 100 µM; in test [6], 0.22 µM. Further, the GI50 in test [7] is 0.384 µM; in [8] it was 0.133 µM. Moreover, the TGI in [1] is more than 100 µM; in [3] it was 1.46 µM; in [4], more than 100 µM; in test [5], more than 100 µM; in test [6], more than 100 µM; in [7], more than 100 µM. The same molecule registered a TGI in test [8] of more than 100 µM.

Consider `Cc1c(C(=O)NCCN2CCOCC2)cn2ncnc(Oc3ccc(NC(=O)Nc4ccc(Cl)c(C(F)(F)F)c4)cc3)c12`, for which the GI50 in test [1] is 1.34 µM; in test [3], 1.6 µM; in test [4], 2.18 µM; in test [6], 0.711 µM; in test [9] it was 1.22 µM. The TGI in [1] stood at 2.84 µM; in test [3], 3.08 µM; in [4], 3.83 µM; in test [6] it was 2.1 µM; in test [9] it was 2.73 µM.

As for `OCCNc1ncnc2c1ncn2Cc1cccc(COc2cccc(OCc3cccc(Cn4cnc5c(NCCO)ncnc54)c3)c2)c1`, the GI50 in test [1] was 17 µM; in [2] it was 15.5 µM; in [3] it was 14.9 µM; in [4] it was 23.1 µM; in test [5] it was 18.4 µM; in [6] it was 10.2 µM. Besides, the GI50 in [7] was 15.4 µM; in [8] it was 11.8 µM. Moreover, the TGI in test [1] is 33.8 µM; in [2] it was 33.3 µM; in [3] it was 28.9 µM; in test [4], 56.6 µM; in test [5], 36.1 µM; in test [6], 22.3 µM. Moreover, the TGI worked out at 30.4 µM in test [7] and 24.9 µM in [8].

For the molecule `C[C@]12CCCC(=O)C1(O)C[C@H](C(=O)O)CC2` (stereo partly specified), the TGI in test [1], in test [2], in [3], in test [4], in test [5] and in test [6] was more than 100 µM each time. Also, the TGI in test [7] and in [8] was more than 100 µM throughout.

For the molecule `CN(C)/N=C(/c1nc2ccc(Cl)cc2[nH]c1=O)C(O)c1ccc(C(O)/C(=N\N(C)C)c2nc3ccc(Cl)cc3[nH]c2=O)cc1` (stereo unspecified), the TGI in [1], in [3], in test [4], in test [5], in test [6] and in test [7] was more than 100 µM in each case. The TGI in test [8] and in test [9] was more than 100 µM throughout.
